In test [1] the test system is MDR HIV-1 variant VSL20. The test is described as follows: Cell-based antiviral assay. Particulars: relative to corresponding isobutyl analogues 12 and 13.
Test [2] addresses HIV-1 protease I84V variant (Human immunodeficiency virus type 1 group M subtype B, UniProt P12497, I572V/Q495K). In kind it is biochemical.
Test [3] concerns WT HIV-1 strain NL4-3. Nature of the test: Cell-based antiviral assay. To be noted: relative to DRV.

With `CC[C@H](C)CN(C[C@@H](O)[C@H](Cc1ccccc1)NC(=O)O[C@H]1CO[C@H]2OCC[C@H]21)S(=O)(=O)c1ccc([C@H](C)O)cc1` [Compound 14, (3R,3aS,6aR)-Hexahydrofuro[2,3-b]furan-3-yl ((2S,3R)-3-hydroxy-4-((4-((S)-1-hydroxyethyl)-N-((S)-2-methylbutyl)phenyl)sulfonamido)-1-phenylbutan-2-yl)carbamate], in test [1], the “fold loss in potency against VSL20 compared to analogues 12 and 13” value was determined as 2 fold.

With `CC[C@H](C)CN(C[C@@H](O)[C@H](Cc1ccccc1)NC(=O)O[C@H]1CO[C@H]2OCC[C@H]21)S(=O)(=O)c1ccc([C@@H](C)O)cc1` [Compound 15, (3R,3aS,6aR)-Hexahydrofuro[2,3-b]furan-3-yl ((2S,3R)-3-hydroxy-4-((4-((R)-1-hydroxyethyl)-N-((S)-2-methylbutyl)phenyl)sulfonamido)-1-phenylbutan-2-yl)carbamate], the “fold loss in potency against VSL20 compared to analogues 12 and 13” value in test [1] stood at 2 fold.

In the case of `CC(C)CN(C[C@@H](O)[C@H](Cc1ccccc1)NC(=O)O[C@H]1CO[C@H]2OCC[C@H]21)S(=O)(=O)c1ccc([C@H](O)CO)cc1` [Compound 23, (3R,3aS,6aR)-Hexahydrofuro[2,3-b]furan-3-yl ((2S,3R)-4-((4-((S)-1,2-dihydroxyethyl)-N-isobutylphenyl)sulfonamido)-3-hydroxy-1-phenylbutan-2-yl)carbamate], the “fold less active against the I84V protease than the P2′ epimer 22” value in test [2] (I84V protease, relative to diastereoisomer 22) is given as “about 3 fold”.

As to `CCC(CC)CN(C[C@@H](O)[C@H](Cc1ccccc1)NC(=O)O[C@H]1CO[C@H]2OCC[C@H]21)S(=O)(=O)c1ccc([C@@H](O)CO)cc1` [Compound 26, (3R,3aS,6aR)-Hexahydrofuro[2,3-b]furan-3-yl ((2S,3R)-4-((4-((R)-1,2-dihydroxyethyl)-N-(2-ethylbutyl)phenyl)sulfonamido)-3-hydroxy-1-phenylbutan-2-yl)carbamate], the “fold less active than DRV against wild-type HIV-1” value in test [3] was determined as 8 fold.

With `CCC(CC)CN(C[C@@H](O)[C@H](Cc1ccccc1)NC(=O)O[C@H]1CO[C@H]2OCC[C@H]21)S(=O)(=O)c1ccc([C@H](O)CO)cc1` [Compound 27, (3R,3aS,6aR)-Hexahydrofuro[2,3-b]furan-3-yl ((2S,3R)-4-((4-((S)-1,2-dihydroxyethyl)-N-(2-ethylbutyl)phenyl)sulfonamido)-3-hydroxy-1-phenylbutan-2-yl)carbamate], in test [2] (I84V and I50V/A71V variants, relative to 26), the “fold less potent against the protease variants tested than the (R)-epimer 26” value is 2–3 fold. In test [3], the “fold less active than DRV against wild-type HIV-1” value is given as 8 fold.

The values above are taken from PMC6941148 (Journal of medicinal chemistry, 2019).
